Experimental data as given in US12194032B2, “Method of treating focal segmental glomerulosclerosis” (ChemoCentryx, Inc., priority 2016, dated 2025).

Key:
Format in all cases: in vivo
[1] = tested on: Adriamycin nephropathy female Balb/c mice; test: Adriamycin Nephropathy Model (Example 2); conditions: Adriamycin 7.5 mg/kg i.v. day 0; compound 1 90 mg/kg subcutaneously once daily; candesartan orally once daily; week 1, 2 and 3; vs vehicles
Experimental: (§1) The remnant kidney and the adryamicin drug-induced models are commonly used rodent models for FSGS (de Mik S M. Et al. Pathophysiology and treatment of focal segmental glomerulosclerosis: the role of animal models. BMC Nephrol. 2013 Apr. 1; 14:74). The 5/6 remnant kidney model is representative of secondary FSGS whereas the Adriamycin nephropathy model is representative of primary FSGS.
The experiment was performed in female Balb/c mice (Jackson Laboratories). The mice were kept on standard chow and had free access to water. 7.5 mg/kg Adriamycin (Selleck Chemicals) or saline (control) was injected in a tail vein in isoflurane-anesthetized animals at day 0. Compound 1 and its vehicle (1% HPMC) were dosed subcutaneously once daily at 90 mg/kg formulated in 1% HPMC. Candesartan and its vehicle (H2O) were dosed orally once daily. Twelve animals were used for each group.
[…] Urinary albumin was measured by ELISA (Bethyl Labs, Montgomery, TX), and the urinary albumin excretion rate (UAER) was calculated as micrograms per 24 hours. Urinary creatinine was measured by mass spectrometry. The albumin to creatinine ratio (ACR) was calculated as micrograms of albumin per milligram of creatinine.

[2] = tested on: 5/6 remnant kidney 129X1/SvJ mice; test: 5/6 Remnant Kidney Model (Example 1); conditions: 5/6 nephrectomized mice
Description: as §1
(§2) The 5/6 remnant kidney 129X1/SvJ mice was obtained from Jackson Laboratories. The mice were kept on standard chow and had free access to water. The mice surgery was performed in two stages. Under isoflurane anesthesia, two-thirds of the left kidney mass was dissected. After 7 to 10 days, a right unilateral nephrectomy was performed. Six weeks after the 5/6 nephrectomy, the mice were randomized for the study. Compound 3 and its vehicle were dosed subcutaneously once daily at 100 mg/kg formulated in 1% HPMC. 6 animals were used for each group.
Urine samples were collected at weeks one and two by individually housing the mice in metabolic cages for 18 hours. Urinary albumin was measured by ELISA (Bethyl Labs, Montgomery, TX), and the urinary albumin excretion rate (UAER) was calculated as micrograms per 24 hours. Urinary creatinine was measured by mass spectrometry. The albumin to creatinine ratio (ACR) was calculated as micrograms of albumin per milligram of creatinine. At the end of the experiments (after 2 weeks of treatment), the kidneys were collected, fixed in formalin, embedded in paraffin, and cut into 3-μm-thick sections. Sections were stained for podocytes by immunohistochemistry with Wilms tumor protein 1 antibody (Abcam, Cambridge, MA). Glomerular cross-sectional area and podocyte number were determined in 20-30 glomeruli per mouse. Glomerulus volume and podocyte density were calculated from the immunohistochemistry data using the Weibel method. Mesangial expansion was measured by silver methenamine stain on 2-μm-thick paraffin sections by conventional methods.

[3] = tested on: 5/6 remnant kidney 129X1/SvJ mice; test: 5/6 Remnant Kidney Model with Combination Treatment (Example 3); conditions: 5/6 nephrectomized mice, compound 3 100 mg/kg subcutaneously once daily, candesartan 5 mg/kg orally once daily
Description: as §1
as §2, with “After seven” for “After 7”, “to ten” for “to 10”, “performed. Three to six” for “performed. Six”, “the study (n=12 per group).” for “the study.”, “HPMC. […]” for “HPMC. 6 animals were used for each group.”
Urine samples were collected at week one, two and three by individually housing the mice in metabolic cages for 18 hours. Urinary albumin was measured by ELISA (Bethyl Labs, Montgomery, TX), and the urinary albumin excretion rate (UAER) was calculated as micrograms per 24 hours. Urinary creatinine was measured by mass spectrometry. The albumin to creatinine ratio (ACR) was calculated as micrograms of albumin per milligram of creatinine.

[4] = 100 mg/kg subcutaneously once daily, kidneys after 2 weeks of treatment

SMILES	UACR levels (FIG. 8) [1]	proteinuria (UACR values, FIG. 1) ([2]; 100 mg/kg subcutaneously once daily in 1% HPMC, week 1 and 2, vs vehicle)	number of renal interstitial macrophages (macrophage content as percentage of total area, FIG. 2) [2, 4]	percentage of glomeruli with mesangiolysis (FIG. 6) [2, 4]	podocytes numbers per glomerular cross section (FIG. 4) [2, 4]	UACR values (FIG. 11) ([3]; week 1 and week 2)	UAER values (FIG. 10) ([3]; weeks 1, 2 and 3)
Cc1cnc(C(=O)c2ccnc3[nH]ccc23)c(NS(=O)(=O)c2ccc(Cl)c(C(F)(F)F)c2)c1 [compound 1]	reduction in UACR levels	–	–	–	–	–	–
O=C(c1ncc(Cl)cc1NS(=O)(=O)c1ccc(Cl)c(C(F)(F)F)c1)c1ccnc2[nH]ccc12 [compound 3]	–	reduces the profound proteinuria	reduces the number of renal interstitial macrophages	beneficial effect	increased podocytes numbers	reduction in UACR values	reduction in UAER values
